One series in a line: The drug is tested on Bacteroides caccae strain: ATCC43185 for biotransformation. The drug concentrations were measured before and after a 12-h incubation by liquid-chromatography-coupled mass spectrometry (LC–MS). To be noted: 2 µM.
Consider `CNCCC(Oc1ccc(C(F)(F)F)cc1)c1ccccc1` (stereo not given) [FLUOXETINE], for which the “Bacterial Biotransformation” value is reported as “Compound metabolized”.

The next series is described as follows: The drug is tested on Bacteroides fragilis strain: ATCC43859 for biotransformation. The drug concentrations were measured before and after a 12-h incubation by liquid-chromatography-coupled mass spectrometry (LC–MS). As to conditions: 2 µM.
Consider `O=C1CN2Cc3c(ccc(Cl)c3Cl)N=C2N1` [ANAGRELIDE], for which the “Bacterial Biotransformation” value is reported as “Compound NOT metabolized”.

As to `CNC(=C[N+](=O)[O-])NCCSCc1ccc(CN(C)C)o1` [RANITIDINE], the “Bacterial Biotransformation” value is “Compound NOT metabolized”.

On to `CNCCC(Oc1ccc(C(F)(F)F)cc1)c1ccccc1` (stereo not given) [FLUOXETINE], for which the “Bacterial Biotransformation” value is “Compound metabolized”.

The conditions of another series: bacteroides fragilis, 12 h, 2 µM.
Description: The drug is tested on Bacteroides fragilis strain: 3397 (T10) for biotransformation. The drug concentrations were measured before and after a 12-h incubation by liquid-chromatography-coupled mass spectrometry (LC–MS)
For the molecule `O=C1CN2Cc3c(ccc(Cl)c3Cl)N=C2N1` [ANAGRELIDE], the “Bacterial Biotransformation” value is “Compound NOT metabolized”.

For the molecule `CNC(=C[N+](=O)[O-])NCCSCc1ccc(CN(C)C)o1` [RANITIDINE], the “Bacterial Biotransformation” value is “Compound NOT metabolized”.

`CNCCC(Oc1ccc(C(F)(F)F)cc1)c1ccccc1` (stereo not given) [FLUOXETINE]: the “Bacterial Biotransformation” value is “Compound metabolized”.

A short description of the next series: The drug is tested on Clostridium scindens strain: ATCC35704 for biotransformation. The drug concentrations were measured before and after a 12-h incubation by liquid-chromatography-coupled mass spectrometry (LC–MS). As to conditions: 2 µM.
For the molecule `O=C1CN2Cc3c(ccc(Cl)c3Cl)N=C2N1` [ANAGRELIDE], the “Bacterial Biotransformation” value was “Compound NOT metabolized”.

As to `CNC(=C[N+](=O)[O-])NCCSCc1ccc(CN(C)C)o1` [RANITIDINE], the “Bacterial Biotransformation” value was “Compound metabolized”.

Turning to `CNCCC(Oc1ccc(C(F)(F)F)cc1)c1ccccc1` (stereo not given) [FLUOXETINE], the “Bacterial Biotransformation” value is reported as “Compound NOT metabolized”.

A short description of a further series: The drug is tested on Eubacterium hallii strain: DSM3353 for biotransformation. The drug concentrations were measured before and after a 12-h incubation by liquid-chromatography-coupled mass spectrometry (LC–MS). As to conditions: anaerobutyricum hallii, 2 µM.
With `O=C1CN2Cc3c(ccc(Cl)c3Cl)N=C2N1` [ANAGRELIDE], the “Bacterial Biotransformation” value is recorded as “Compound NOT metabolized”.

Regarding `CNC(=C[N+](=O)[O-])NCCSCc1ccc(CN(C)C)o1` [RANITIDINE], the “Bacterial Biotransformation” value is given as “Compound metabolized”.

With `CNCCC(Oc1ccc(C(F)(F)F)cc1)c1ccccc1` (stereo not given) [FLUOXETINE], the “Bacterial Biotransformation” value is “Compound metabolized”.

A further series is described as follows: The drug is tested on Odoribacter splanchnicus strain: fecal isolate for biotransformation. The drug concentrations were measured before and after a 12-h incubation by liquid-chromatography-coupled mass spectrometry (LC–MS). To be noted: 2 µM.
In the case of `O=C1CN2Cc3c(ccc(Cl)c3Cl)N=C2N1` [ANAGRELIDE], the “Bacterial Biotransformation” value is reported as “Compound metabolized”.

For `CNC(=C[N+](=O)[O-])NCCSCc1ccc(CN(C)C)o1` [RANITIDINE], the “Bacterial Biotransformation” value is on record as “Compound metabolized”.

`CNCCC(Oc1ccc(C(F)(F)F)cc1)c1ccccc1` (stereo not given) [FLUOXETINE]: the “Bacterial Biotransformation” value is on record as “Compound metabolized”.

The conditions of another series: bacteroides thetaiotaomicron, 12 h, 2 µM.
Description: The drug is tested on Bacteroides thetaiotaomicron strain: 3731 for biotransformation. The drug concentrations were measured before and after a 12-h incubation by liquid-chromatography-coupled mass spectrometry (LC–MS)
On to `O=C1CN2Cc3c(ccc(Cl)c3Cl)N=C2N1` [ANAGRELIDE], for which the “Bacterial Biotransformation” value is recorded as “Compound NOT metabolized”.

Regarding `CNC(=C[N+](=O)[O-])NCCSCc1ccc(CN(C)C)o1` [RANITIDINE], the “Bacterial Biotransformation” value is “Compound NOT metabolized”.

Consider `CNCCC(Oc1ccc(C(F)(F)F)cc1)c1ccccc1` (stereo not given) [FLUOXETINE], for which the “Bacterial Biotransformation” value was “Compound metabolized”.

The nature of a further series: The drug is tested on Collinsella aerofaciens strain: ATCC25986 for biotransformation. The drug concentrations were measured before and after a 12-h incubation by liquid-chromatography-coupled mass spectrometry (LC–MS). As to conditions: 2 µM.
On to `O=C1CN2Cc3c(ccc(Cl)c3Cl)N=C2N1` [ANAGRELIDE], for which the “Bacterial Biotransformation” value is given as “Compound NOT metabolized”.

Take `CNC(=C[N+](=O)[O-])NCCSCc1ccc(CN(C)C)o1` [RANITIDINE]: the “Bacterial Biotransformation” value is listed as “Compound metabolized”.

Regarding `CNCCC(Oc1ccc(C(F)(F)F)cc1)c1ccccc1` (stereo not given) [FLUOXETINE], the “Bacterial Biotransformation” value is “Compound metabolized”.

The nature of a further series: The drug is tested on Enterobacter cancerogenus strain: ATCC35316 for biotransformation. The drug concentrations were measured before and after a 12-h incubation by liquid-chromatography-coupled mass spectrometry (LC–MS). To be noted: 2 µM.
Turning to `O=C1CN2Cc3c(ccc(Cl)c3Cl)N=C2N1` [ANAGRELIDE], the “Bacterial Biotransformation” value is “Compound NOT metabolized”.

As for `CNC(=C[N+](=O)[O-])NCCSCc1ccc(CN(C)C)o1` [RANITIDINE], the “Bacterial Biotransformation” value is recorded as “Compound NOT metabolized”.

Regarding `CNCCC(Oc1ccc(C(F)(F)F)cc1)c1ccccc1` (stereo not given) [FLUOXETINE], the “Bacterial Biotransformation” value is “Compound metabolized”.

The next series is described as follows: The drug is tested on Bacteroides fragilis strain: HMW615 for biotransformation. The drug concentrations were measured before and after a 12-h incubation by liquid-chromatography-coupled mass spectrometry (LC–MS). To be noted: 2 µM.
As to `O=C1CN2Cc3c(ccc(Cl)c3Cl)N=C2N1` [ANAGRELIDE], the “Bacterial Biotransformation” value is “Compound NOT metabolized”.

Take `CNC(=C[N+](=O)[O-])NCCSCc1ccc(CN(C)C)o1` [RANITIDINE]: the “Bacterial Biotransformation” value was “Compound NOT metabolized”.

As for `CNCCC(Oc1ccc(C(F)(F)F)cc1)c1ccccc1` (stereo not given) [FLUOXETINE], the “Bacterial Biotransformation” value is reported as “Compound metabolized”.

A short description of a further series: The drug is tested on Bifidobacterium longum subsp. Infantis strain: CCUG52486 for biotransformation. The drug concentrations were measured before and after a 12-h incubation by liquid-chromatography-coupled mass spectrometry (LC–MS). To be noted: 2 µM.
`CNC(=C[N+](=O)[O-])NCCSCc1ccc(CN(C)C)o1` [RANITIDINE]: the “Bacterial Biotransformation” value is “Compound metabolized”.

Consider `CNCCC(Oc1ccc(C(F)(F)F)cc1)c1ccccc1` (stereo not given) [FLUOXETINE], for which the “Bacterial Biotransformation” value was “Compound metabolized”.

A further series in a line: The drug is tested on Bacteroides xylanisolvens strain: DSM18836 for biotransformation. The drug concentrations were measured before and after a 12-h incubation by liquid-chromatography-coupled mass spectrometry (LC–MS). As to conditions: 2 µM.
For the molecule `O=C1CN2Cc3c(ccc(Cl)c3Cl)N=C2N1` [ANAGRELIDE], the “Bacterial Biotransformation” value is reported as “Compound NOT metabolized”.

For `CNC(=C[N+](=O)[O-])NCCSCc1ccc(CN(C)C)o1` [RANITIDINE], the “Bacterial Biotransformation” value is “Compound metabolized”.

As to `CNCCC(Oc1ccc(C(F)(F)F)cc1)c1ccccc1` (stereo not given) [FLUOXETINE], the “Bacterial Biotransformation” value is listed as “Compound metabolized”.

For another series the following is noted: parabacteroides distasonis, 12 h, 2 µM.
Description: The drug is tested on Parabacteroides distasonis strain: ATCC8503 for biotransformation. The drug concentrations were measured before and after a 12-h incubation by liquid-chromatography-coupled mass spectrometry (LC–MS)
With `O=C1CN2Cc3c(ccc(Cl)c3Cl)N=C2N1` [ANAGRELIDE], the “Bacterial Biotransformation” value is recorded as “Compound NOT metabolized”.

As for `CNC(=C[N+](=O)[O-])NCCSCc1ccc(CN(C)C)o1` [RANITIDINE], the “Bacterial Biotransformation” value is “Compound NOT metabolized”.

For `CNCCC(Oc1ccc(C(F)(F)F)cc1)c1ccccc1` (stereo not given) [FLUOXETINE], the “Bacterial Biotransformation” value is recorded as “Compound metabolized”.

The next series in a line: The drug is tested on Coprococcus comes strain: ATCC27758 for biotransformation. The drug concentrations were measured before and after a 12-h incubation by liquid-chromatography-coupled mass spectrometry (LC–MS). Type of series: ADME. Details: dose 2 uM, timepoint 0 vs 12 hours. As to conditions: 2 µM.
As for `O=C1CN2Cc3c(ccc(Cl)c3Cl)N=C2N1` [ANAGRELIDE], the “Bacterial Biotransformation” value is listed as “Compound NOT metabolized”.

`CNC(=C[N+](=O)[O-])NCCSCc1ccc(CN(C)C)o1` [RANITIDINE]: the “Bacterial Biotransformation” value is “Compound metabolized”.

The next series in a line: The drug is tested on Ruminococcus lactaris strain: ATCC29176 for biotransformation. The drug concentrations were measured before and after a 12-h incubation by liquid-chromatography-coupled mass spectrometry (LC–MS). As to conditions: 2 µM.
For the molecule `O=C1CN2Cc3c(ccc(Cl)c3Cl)N=C2N1` [ANAGRELIDE], the “Bacterial Biotransformation” value is “Compound NOT metabolized”.

Take `CNC(=C[N+](=O)[O-])NCCSCc1ccc(CN(C)C)o1` [RANITIDINE]: the “Bacterial Biotransformation” value is “Compound metabolized”.

For `CNCCC(Oc1ccc(C(F)(F)F)cc1)c1ccccc1` (stereo not given) [FLUOXETINE], the “Bacterial Biotransformation” value is recorded as “Compound metabolized”.

For the next series the following is noted: anaerostipes sp., 12 h, 2 µM.
Description: The drug is tested on Anaerostipes sp. strain: fecal isolate for biotransformation. The drug concentrations were measured before and after a 12-h incubation by liquid-chromatography-coupled mass spectrometry (LC–MS)
Take `O=C1CN2Cc3c(ccc(Cl)c3Cl)N=C2N1` [ANAGRELIDE]: the “Bacterial Biotransformation” value is “Compound NOT metabolized”.

`CNC(=C[N+](=O)[O-])NCCSCc1ccc(CN(C)C)o1` [RANITIDINE]: the “Bacterial Biotransformation” value was “Compound NOT metabolized”.

Turning to `CNCCC(Oc1ccc(C(F)(F)F)cc1)c1ccccc1` (stereo not given) [FLUOXETINE], the “Bacterial Biotransformation” value is “Compound metabolized”.

The next series can be described thus: The drug is tested on Clostridium sporogenes strain: ATCC15579 for biotransformation. The drug concentrations were measured before and after a 12-h incubation by liquid-chromatography-coupled mass spectrometry (LC–MS). To be noted: 2 µM.
Take `O=C1CN2Cc3c(ccc(Cl)c3Cl)N=C2N1` [ANAGRELIDE]: the “Bacterial Biotransformation” value is “Compound NOT metabolized”.

For the molecule `CNC(=C[N+](=O)[O-])NCCSCc1ccc(CN(C)C)o1` [RANITIDINE], the “Bacterial Biotransformation” value is “Compound NOT metabolized”.

For `CNCCC(Oc1ccc(C(F)(F)F)cc1)c1ccccc1` (stereo not given) [FLUOXETINE], the “Bacterial Biotransformation” value is on record as “Compound metabolized”.

A further series in a line: The drug is tested on Bacteroides finegoldii strain: DSM17565 for biotransformation. The drug concentrations were measured before and after a 12-h incubation by liquid-chromatography-coupled mass spectrometry (LC–MS). To be noted: 2 µM.
As for `O=C1CN2Cc3c(ccc(Cl)c3Cl)N=C2N1` [ANAGRELIDE], the “Bacterial Biotransformation” value was “Compound NOT metabolized”.

Turning to `CNCCC(Oc1ccc(C(F)(F)F)cc1)c1ccccc1` (stereo not given) [FLUOXETINE], the “Bacterial Biotransformation” value was “Compound NOT metabolized”.

The conditions of the next series: bacteroides intestinalis, 12 h, 2 µM.
Description: The drug is tested on Bacteroides intestinalis strain: DSM17393 for biotransformation. The drug concentrations were measured before and after a 12-h incubation by liquid-chromatography-coupled mass spectrometry (LC–MS)
On to `O=C1CN2Cc3c(ccc(Cl)c3Cl)N=C2N1` [ANAGRELIDE], for which the “Bacterial Biotransformation” value is recorded as “Compound NOT metabolized”.

Regarding `CNC(=C[N+](=O)[O-])NCCSCc1ccc(CN(C)C)o1` [RANITIDINE], the “Bacterial Biotransformation” value is “Compound NOT metabolized”.

Take `CNCCC(Oc1ccc(C(F)(F)F)cc1)c1ccccc1` (stereo not given) [FLUOXETINE]: the “Bacterial Biotransformation” value is listed as “Compound metabolized”.

A further series in a line: The drug is tested on Providencia rettgeri strain: DSM1131 for biotransformation. The drug concentrations were measured before and after a 12-h incubation by liquid-chromatography-coupled mass spectrometry (LC–MS). Details: dose 2 uM, timepoint 0 vs 12 hours. As to conditions: 2 µM. It counts as ADME.
Turning to `O=C1CN2Cc3c(ccc(Cl)c3Cl)N=C2N1` [ANAGRELIDE], the “Bacterial Biotransformation” value is reported as “Compound NOT metabolized”.

On to `CNC(=C[N+](=O)[O-])NCCSCc1ccc(CN(C)C)o1` [RANITIDINE], for which the “Bacterial Biotransformation” value is given as “Compound NOT metabolized”.

Turning to `CNCCC(Oc1ccc(C(F)(F)F)cc1)c1ccccc1` (stereo not given) [FLUOXETINE], the “Bacterial Biotransformation” value is on record as “Compound NOT metabolized”.

These data come from ChEMBL document CHEMBL5303573, “Mapping human microbiome drug metabolism by gut bacteria and their genes” (Nature, 2019).
